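The compound was tested at five concentrations on cells cultured in 96-well plates, with a 48-hour exposure period. TGI: concentration producing complete growth inhibition.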 Where a SMILES comes first, the peptide text is derived from it. [ ]: non-standard residue; d: D form. The star is where a group is joined. ξ: configuration not given here. Propanoyl(3-(4-MeO-Ph)) = COc1ccc(CCC(=O)*)cc1; Thr(3ξ) = CC(O)[C@H](N)C(=O)O; dNMeL = CN[C@H](CC(C)C)C(=O)O; Boc = CC(C)(C)OC(=O)*; OBn = c1ccc(CO*)cc1; ξLac = CC(O)C(=O)O
Tests used:
Assay in all cases: NCI-60 cell line screen, 48 h
M14 melanoma = tested on: M14 melanoma
SN12C renal = tested on: SN12C renal
HL-60(TB) leukemia = tested on: HL-60(TB) leukemia
T-47D breast = tested on: T-47D breast
SW-620 colon = tested on: SW-620 colon
UACC-62 melanoma = tested on: UACC-62 melanoma
HS 578T breast = tested on: HS 578T breast
UO-31 renal = tested on: UO-31 renal
MDA-MB-435 = tested on: MDA-MB-435
OVCAR-3 ovarian = tested on: OVCAR-3 ovarian

Row | SMILES | TGI (M14 melanoma) | TGI (SN12C renal) | TGI (HL-60(TB) leukemia) | TGI (T-47D breast) | TGI (SW-620 colon) | TGI (UACC-62 melanoma) | TGI (HS 578T breast) | TGI (UO-31 renal) | TGI (MDA-MB-435) | TGI (OVCAR-3 ovarian)
1 | OCCN=C1c2ccccc2C2C(c3ccccc31)C1c3ccccc3C(=NCCO)c3ccccc3C21 (stereo not given) | 42.3 µM | 55.8 µM | 47.2 µM | 97 µM | > 100 µM | 37.5 µM | 45.7 µM | 32.6 µM | 40.9 µM | 40.3 µM
2 | COc1cc(/C=C/C(=O)N[C@@H]2C(=O)N3[C@@H]2SC(C)(C)[C@@H]3C(=O)O)cc(OC)c1OC | > 100 µM | > 100 µM | > 100 µM | > 100 µM | > 100 µM | > 100 µM | > 100 µM | > 100 µM | > 100 µM | > 100 µM
3 | O=C(N/N=C\c1ccc([N+](=O)[O-])cc1)c1ccccc1Nc1ccccc1C(=O)N/N=C/c1ccc([N+](=O)[O-])cc1 | 79.7 µM | > 100 µM | > 100 µM | > 100 µM | > 100 µM | > 100 µM | > 100 µM | > 100 µM | > 100 µM | > 100 µM
4 | Cc1ccc(/C=N/NC2=NCCN2)s1 | > 100 µM | > 100 µM | > 100 µM | > 100 µM | > 100 µM | > 100 µM | > 100 µM | > 100 µM | > 100 µM | > 100 µM
5 | N#C[C@@]12CCCC(=O)[C@@H]1[C@H]1CCC[C@H]12 | 30.2 µM | 35.1 µM | 34.1 µM | 41.3 µM | 45.2 µM | 58 µM | > 100 µM | 30 µM | 33.5 µM | 23.7 µM
6 | CC12CC3(O)OC(O1)C1(COC(=O)c4ccccc4)C3CC21OC1OC(CO)C(O)C(O)C1O (stereo not given) | > 100 µM | > 100 µM | > 100 µM | > 100 µM | > 100 µM | > 100 µM | > 100 µM | > 100 µM | > 100 µM | > 100 µM
7 | CC(C)(C)OC(=O)NC(Cc1ccc(OCc2ccccc2)cn1)C(=O)N1CCSCC1 (stereo not given) | > 100 µM | > 100 µM | 81.1 µM | 49.6 µM | > 100 µM | > 100 µM | > 100 µM | > 100 µM | > 100 µM | > 100 µM
8 | COc1cc(C(=O)Nc2c3ccccc3nc3ccccc23)cc(OC)c1OC | > 100 µM | > 100 µM | 5.58 µM | > 100 µM | > 100 µM | > 100 µM | > 100 µM | > 100 µM | > 100 µM | > 100 µM
9 | CN[C@@H](C)[C@H](OP(=O)(O)OC1[C@@H](O)[C@H](O)C(O)[C@H](O)[C@@H]1O)c1ccccc1 (stereo not given in full) | > 100 µM | > 100 µM | > 100 µM | > 100 µM | > 100 µM | > 100 µM | > 100 µM | > 100 µM | > 100 µM | > 100 µM
10 | CC(C)CC1[C@@H](OCc2ccccc2)COS(=O)(=O)N1Cc1ccccc1 (stereo not given in full) | > 100 µM | > 100 µM | > 100 µM | > 100 µM | > 100 µM | > 100 µM | 70 µM | 97.6 µM | > 100 µM | > 100 µM
11 | Cc1ccc(Nc2nc(=O)[nH]c(=O)[nH]2)cc1N=[N+]=[N-] | > 100 µM | > 100 µM | > 100 µM | > 100 µM | > 100 µM | > 100 µM | > 100 µM | > 100 µM | > 100 µM | > 100 µM
12 | COc1ccc(CCCC(=O)O)c(C)c1 | > 100 µM | > 100 µM | > 100 µM | > 100 µM | > 100 µM | > 100 µM | > 100 µM | > 100 µM | > 100 µM | 97.5 µM
13 | COc1ccc(C(C#N)NCCCCCCNC(C#N)c2ccc(OC)cc2)cc1 (stereo not given) | > 100 µM | > 100 µM | > 100 µM | > 100 µM | > 100 µM | > 100 µM | > 100 µM | > 100 µM | > 100 µM | > 100 µM
14 | COC(=O)c1ccc(CCc2cc(O)c(Br)cc2O)cc1 | 29 µM | 28.3 µM | 4.65 µM | 51.1 µM | 30.5 µM | 27.1 µM | > 100 µM | 18.1 µM | 22.6 µM | 19.8 µM
15 | CC(=O)N1N=C(N)CC1=O | > 100 µM | > 100 µM | > 100 µM | > 100 µM | > 100 µM | > 100 µM | > 100 µM | > 100 µM | > 100 µM | > 100 µM
16 | O[C@H]1[C@H](O)[C@H](O)CN2CCC[C@@H](O)[C@H]12 | > 100 µM | > 100 µM | > 100 µM | > 100 µM | > 100 µM | > 100 µM | > 100 µM | > 100 µM | > 100 µM | > 100 µM
17 | CC1(C)C(=O)C2(OS(=O)(=O)C(F)(F)F)CCC1C2 (stereo not given) | > 100 µM | > 100 µM | > 100 µM | > 100 µM | > 100 µM | > 100 µM | > 100 µM | > 100 µM | > 100 µM | > 100 µM

Row | SMILES | TGI (M14 melanoma) | TGI (SN12C renal) | TGI (HL-60(TB) leukemia) | TGI (T-47D breast) | TGI (SW-620 colon) | TGI (UACC-62 melanoma) | TGI (HS 578T breast) | TGI (UO-31 renal) | TGI (MDA-MB-435) | TGI (OVCAR-3 ovarian)
18 | CCOC(=O)/C=C(\N=P(c1ccccc1)(c1ccccc1)c1ccccc1)C(F)(F)C(F)(F)C(F)(F)C(F)(F)C(F)(F)F | > 100 µM | > 100 µM | > 100 µM | > 100 µM | > 100 µM | > 100 µM | > 100 µM | > 100 µM | > 100 µM | > 100 µM
19 | O=C(N/N=C\c1ccc([N+](=O)[O-])cc1)Nc1cccc2ccccc12 | > 100 µM | > 100 µM | > 31.6 µM | > 47.6 µM | > 100 µM | > 49.8 µM | 32 µM | > 79.8 µM | > 100 µM | > 100 µM
20 | CCOC(=O)C1(C(=O)OCC)CC(=O)[C@@]2(C1)OCC[C@H]1OC(=O)C[C@H]12 | > 100 µM | > 100 µM | > 100 µM | > 100 µM | > 100 µM | > 100 µM | > 100 µM | > 100 µM | > 100 µM | > 100 µM
21 | O=c1[nH]c2ccc(CC(=S)N3CCN(c4ccccc4)CC3)cc2o1 | > 100 µM | > 100 µM | > 100 µM | > 100 µM | > 100 µM | > 100 µM | > 100 µM | > 100 µM | > 100 µM | > 100 µM
22 | NCCCc1c(-c2ccccc2)nc(N)[nH]c1=O | > 100 µM | > 100 µM | > 100 µM | > 100 µM | > 100 µM | > 100 µM | > 100 µM | > 100 µM | > 100 µM | > 100 µM
23 | CCOCC(NC(=O)C(CC(C)C)NC(=O)OC(C)(C)C)C(N)=O (stereo not drawn) (Boc-Leu-Ser(Et)-NH2; configuration not given here) | > 100 µM | > 100 µM | > 100 µM | > 100 µM | 3.27 µM | > 100 µM | > 100 µM | > 100 µM | > 100 µM | > 100 µM
24 | O=c1c(-c2ccccc2Cl)coc2cc(F)ccc12 | 55.6 µM | > 100 µM | 31.2 µM | > 100 µM | > 100 µM | 73.6 µM | > 100 µM | > 100 µM | 4.31 µM | > 100 µM
25 | Cc1ccc2cccc3c2c1CC1(C3=O)S(=O)(=O)OCCOS1(=O)=O | > 100 µM | > 100 µM | > 100 µM | > 100 µM | > 100 µM | > 100 µM | > 100 µM | > 100 µM | > 100 µM | > 100 µM
26 | COc1ccc(CCC(=O)OC(C)[C@H](NC(=O)[C@@H](CC(C)C)N(C)C(=O)[C@@H]2CCCN2C(=O)C(C)O)C(=O)OCc2ccccc2)cc1 (stereo not given in full) (H-[ξLac]P[dNMeL][Thr(3ξ)](Propanoyl(3-(4-MeO-Ph)))-OBn) | 30.6 µM | > 100 µM | 72.6 µM | 74.5 µM | > 100 µM | 37.9 µM | 27.8 µM | > 100 µM | 44.7 µM | 73.4 µM
27 | CC(=O)O[C@H]1CC[C@@]2(C)C(=CC[C@@H]3[C@@H]2CC[C@]2(C)c4c(cc(C#N)c(=N)n4C(C)=O)C[C@@H]32)C1 | 32.5 µM | 44.8 µM | 36 µM | 46.9 µM | 47.5 µM | 29.7 µM | 59.6 µM | 52.8 µM | 38.5 µM | 34.4 µM
28 | CC1=C(C(=O)Nc2ccccc2)C(c2ccc(C)o2)C(C#N)=C(SCc2ccccc2)N1 (stereo not given) | > 100 µM | > 100 µM | > 100 µM | > 100 µM | > 100 µM | > 100 µM | > 100 µM | > 100 µM | 24.6 µM | > 100 µM
29 | O=c1c(O)c(-c2cc(O)c(O)cc2O)oc2cc(O)c(C3OC(CO)C(O)C(O)C3O)c(O)c12 (stereo not given) | > 100 µM | > 100 µM | > 100 µM | > 100 µM | > 100 µM | > 100 µM | > 100 µM | > 100 µM | > 100 µM | > 100 µM
30 | Clc1ccc2c(NCCNc3ccnc4cc(Cl)ccc34)ccnc2c1 | 31.2 µM | 33.4 µM | 31 µM | 43.8 µM | 31.3 µM | 33.1 µM | > 100 µM | 29.1 µM | 32 µM | 28.3 µM
31 | N=c1oc2ccc(Cl)cc2cc1C(=O)NCc1ccccc1 | > 100 µM | > 100 µM | 36.8 µM | > 100 µM | > 100 µM | > 100 µM | > 80.5 µM | > 100 µM | > 100 µM | > 100 µM
32 | CN(C)CCNC(=O)c1ccc(NCCCN(C)CCCNc2ccc(C(=O)NCCN(C)C)c3[nH]c4ccc([N+](=O)[O-])cc4c(=O)c23)c2c(=O)c3cc([N+](=O)[O-])ccc3[nH]c12 | 2.09 µM | 0.668 µM | 1.01 µM | 2.55 µM | 0.557 µM | 0.622 µM | > 100 µM | 2.01 µM | 0.328 µM | 1.94 µM
33 | O=C1OC(C2OC(=O)c3cc(O)c(O)c(O)c3-c3c(O)c(O)c4oc(=O)c5c(c(O)c(O)c6oc(=O)c3c4c65)-c3c(cc(O)c(O)c3O)C(=O)OCC2O)C2OC(=O)c3c(c(O)c(O)c(O)c3[C@H]2O)-c2c1cc(O)c(O)c2O (stereo not given in full) | 39.5 µM | 36.4 µM | 38.8 µM | 80.1 µM | 48.9 µM | 56.5 µM | > 100 µM | 81.9 µM | 42.3 µM | 67.5 µM
34 | CCOC(=O)COc1c(OC)cc(C2C3=C(COC3=O)Oc3cc4c(cc32)OCO4)cc1OC (stereo not given) | > 100 µM | > 73 µM | 0.539 µM | 17.7 µM | > 65.9 µM | > 31.6 µM | > 57.1 µM | > 100 µM | 0.89 µM | 78.4 µM
